Assays:
Candida albicans = assay: administration to the subject with Candidemia (Candida albicans); type: in vivo, human
Candida albicans isolate = assay: AST testing of isolated colonies, agar-based AST method (e.g., ETEST) or full panel AST device (e.g., VITEK 2); type: cell-based; details: Candida albicans isolate from subject's blood, Example 2
Procedure: (§1) A blood sample is obtained from a subject suspected to be suffering from Candidemia. A portion of the blood sample is used to inoculate a blood culture bottle (e.g., a BD BACTEC™ aerobic blood culture bottle). The blood culture bottles are incubated as recommended by the manufacturer. In parallel, an aliquot of the blood sample obtained from the patient is subjected to a T2MR-based detection method, for example, as described in Example 1 above. In this example, the T2MR-based method identifies Candida albicans as being present in the blood sample.
Next, based on the identification of Candida albicans in the blood sample, the blood culture bottle is sampled by lysis filtration or lysis centrifugation followed by plating of the cell pellet on to Samouraud Glucose media, thereby encouraging growth of Candida albicans and early growth of the isolated colonies. These colonies are subjected to AST testing, either using an agar-based AST method (e.g., ETEST®) or a full panel AST device (e.g., VITEK® 2). Several appropriate anti-fungal drugs are tested, e.g., fluconazole, itraconazole, amphotericin B, micafungin, voriconazole, and caspofungin.

C. glabrata isolate = assay: T2MR-based AST, real-time PCR of housekeeping gene as proxy for growth; type: cell-based, Candida glabrata; details: media with pre-determined levels of agent, Example 4
Procedure: A blood sample is obtained from a subject suspected to be suffering from Candidemia. The blood sample obtained from the patient is subjected to a T2MR-based detection method, for example, the method described in Example 22 of WO 2012/054639 in conjunction with a T2Dx® device. Briefly, PCR is performed using a forward primer that includes the oligonucleotide sequence 5′-GGCATGCCTGTTTGAGCGTC-3′ (SEQ ID NO: 13) and a reverse primer that includes the oligonucleotide sequence 5′-GCTTATTGATATGCTTAAGTTCAGCGGGT-3′ (SEQ ID NO: 14). Magnetic particles conjugated individually to the capture probes described in Table 1 are used to test for the presence of Candida albicans, Candida glabrata, Candida krusei, Candida parapsilosis, and Candida tropicalis. In this example, Candida glabrata is identified as being present in the subject's blood sample within 3 h from the start of the assay.
Based on the T2MR-based detection and identification of Candida glabrata in the subject's blood, a subsequent blood draw is taken directly to media that contain either no antimicrobial agents or pre-determined levels of fluconazole, itraconazole, amphotericin B, or caspofungin. […]

Candida glabrata = assay: administration to the subject with Candidemia (Candida glabrata); type: in vivo, human; details: appropriate dose, subject with Candidemia (C. glabrata), Example 4
C. albicans isolate = assay: T2MR-based AST, real-time PCR of housekeeping gene as proxy for growth; type: cell-based, Candida albicans; details: media with pre-determined levels of agent, Example 5
Procedure: A blood sample is obtained from a subject suspected to be suffering from Candidemia. The blood sample obtained from the patient is subjected to a T2MR-based detection method, for example, as described above in Example 4. In this example, Candida albicans is identified as being present in the subject's blood sample within 3 h from the start of the assay.
Based on the T2MR-based detection and identification of Candida albicans in the subject's blood, a subsequent blood draw is taken directly to media that contain either no antimicrobial agents or pre-determined levels of antimicrobial agents such as fluconazole, itraconazole, amphotericin B, and caspofungin. Aliquots are taken from these media at time intervals, and the aliquots are subjected to T2MR-based real-time PCR is performed as described, for example, in Example 19 of WO 2012/054639, to detect the expression level of the multiple drug resistance gene MDR1 as well as a housekeeping gene such as beta-actin (ACT1) as a proxy for growth of the C. albicans isolate in the media. […] A growth curve is made by plotting the T2 signal over time.

S. aureus isolate [1] = assay: growth on chromogenic media (e.g., CHROMAGAR MRSA); type: cell-based; details: Example 3
Procedure: as §1, with “from bacteremia.” for “from Candidemia.”, “example, the method” for “example, as”, “Example 22 of WO 2012/054639 in conjunction with a T2Dx® device.” for “Example 1 above.”, “identifies S. aureus” for “identifies Candida albicans”, “blood sample within 3 hours from the start of the assay.” for “blood sample.”
(§2) Next, based on the identification of S. aureus in the blood sample, the blood culture bottle is sampled by lysis filtration or lysis centrifugation followed by plating of the cell pellet on to chromogenic media (e.g., CHROMAGAR™ MRSA (Chromagar)) or directly on to an agar-based antimicrobial gradient test (e.g., an ETEST®) in order to test whether the S. aureus isolate from the subject's blood is sensitive to oxacillin, vancomycin, trimethoprim-sulfamethoxazole (BACTRIM™), doxycycline, daptomycin, and linezolid. Additionally, T2MR-based real-time PCR is performed as described, for example, in Example 19 of WO 2012/054639, is used to determine the expression level of antibiotic resistance markers such as mecA. […]

S. aureus isolate [2] = assay: T2MR-based AST with direct cell detection by vancomycin-conjugated magnetic nanoparticles; details: media with pre-determined levels of agent, Example 6
Procedure: as §1, with “In one such example, a blood” for “A blood”, “from bacteremia.” for “from Candidemia.”, “example, the method” for “example, as”, “Example 22 of WO 2012/054639 in conjunction with a T2Dx® device.” for “Example 1 above.”, “identifies S. aureus” for “identifies Candida albicans”, “blood sample within 3 hours from the start of the assay.” for “blood sample.”
Based on the T2MR-based detection and identification of S. aureus in the subject's blood, a subsequent blood draw is taken directly to media that contain either no antimicrobial agents or pre-determined levels of oxacillin, vancomycin, trimethoprim-sulfamethoxazole (BACTRIM™), doxycycline, daptomycin, or linezolid. Aliquots are taken from these media at time intervals, and the aliquots are subjected to T2MR-based direct detection of S. aureus cells, as described, for example, in Example 4 of International Patent Publication No. WO 2012/129281. S. aureus cells are detected by labeling with magnetic nanoparticles. […]

S. aureus = assay: administration to the subject with bacteremia (S. aureus); type: in vivo, human
S. aureus isolate [3] = assay: agar-based antimicrobial gradient test (e.g., ETEST); type: cell-based; details: S. aureus isolate from subject's blood, Example 3
Procedure: as §1, with “from bacteremia.” for “from Candidemia.”, “example, the method” for “example, as”, “Example 22 of WO 2012/054639 in conjunction with a T2Dx® device.” for “Example 1 above.”, “identifies S. aureus” for “identifies Candida albicans”, “blood sample within 3 hours from the start of the assay.” for “blood sample.”
as §2

Compound: C[C@@H]1[C@H](O)[C@@H](C)/C=C/C=C/C=C/C=C/C=C/C=C/C=C/[C@H](O[C@@H]2O[C@H](C)[C@@H](O)[C@H](N)[C@@H]2O)C[C@@H]2O[C@](O)(C[C@@H](O)C[C@@H](O)[C@H](O)CC[C@@H](O)C[C@@H](O)CC(=O)O[C@H]1C)C[C@H](O)[C@H]2C(=O)O [amphotericin B]
- treatment outcome in the subject after switch from fluconazole (Candida albicans; MDR1 expression elevated after fluconazole, therapy switched, Example 5): successful in treating the subject

Compound: OC(Cn1cncn1)(Cn1cncn1)c1ccc(F)cc1F [fluconazole]
- antimicrobial susceptibility of the isolate (Candida albicans isolate): particularly sensitive
- antimicrobial susceptibility of the isolate, growth curve of T2 signal over time (C. glabrata isolate): particularly sensitive
- treatment outcome in the subject (Candida glabrata): treating the subject's Candidemia
- treatment outcome in the subject (Candida albicans; appropriate dose, subject with Candidemia (C. albicans)): treating the subject's Candidemia
- antimicrobial susceptibility of the isolate, growth curve of T2 signal over time (C. albicans isolate): particularly sensitive

Compound: COc1cccc(OC)c1C(=O)N[C@@H]1C(=O)N2[C@@H]1SC(C)(C)[C@@H]2C(=O)O [methicillin]
- antimicrobial resistance of the isolate, based on the color of the colonies (S. aureus isolate [1]): resistant

Compound: CN[C@H](CC(C)C)C(=O)N[C@H]1C(=O)N[C@@H](CC(N)=O)C(=O)N[C@H]2C(=O)N[C@H]3C(=O)N[C@H](C(=O)N[C@H](C(=O)O)c4cc(O)cc(O)c4-c4cc3ccc4O)[C@H](O)c3ccc(c(Cl)c3)Oc3cc2cc(c3O[C@@H]2O[C@H](CO)[C@@H](O)[C@H](O)[C@H]2O[C@H]2C[C@](C)(N)[C@H](O)[C@H](C)O2)Oc2ccc(cc2Cl)[C@H]1O [vancomycin]
- antimicrobial susceptibility of the isolate, growth curve of T2 signal over time (S. aureus isolate [2]): particularly sensitive
- treatment outcome in the subject (S. aureus): treating the subject's bacteremia

Compound: trimethoprim-sulfamethoxazole
- treatment outcome in the subject (S. aureus): treating the bacteremia
- antimicrobial susceptibility of the isolate (S. aureus isolate [3]): sensitive

Reference: US20190032104A1, “RAPID ANTIMICROBIAL SUSCEPTIBILITY TESTING USING HIGH-SENSITIVITY DIRECT DETECTION METHODS” (T2 Biosystems, Inc., priority 2016, published 2019)
